# Data as given in ChEMBL document CHEMBL3132791, “Improved synthesis of 4-/6-substituted 2-carboxy-1H-indole-3-propionic acid derivatives and structureactivity relationships as GPR17 agonists” (Medchemcomm, 2014).
# Calls of active or inactive are those of the source. The calls are words filed in the database; no cut-off is given here.
# Biological target: T1, Uracil nucleotide/cysteinyl leukotriene receptor (Homo sapiens, UniProt Q13304)
# Assay: Agonist activity at human GPR17 receptor transfected in 1321N1 astrocytoma cells assessed as induction of intracellular calcium mobilization by fluorimetric assay
# Format: functional, cell-based
# T1 sequence (Q13304 whole entry): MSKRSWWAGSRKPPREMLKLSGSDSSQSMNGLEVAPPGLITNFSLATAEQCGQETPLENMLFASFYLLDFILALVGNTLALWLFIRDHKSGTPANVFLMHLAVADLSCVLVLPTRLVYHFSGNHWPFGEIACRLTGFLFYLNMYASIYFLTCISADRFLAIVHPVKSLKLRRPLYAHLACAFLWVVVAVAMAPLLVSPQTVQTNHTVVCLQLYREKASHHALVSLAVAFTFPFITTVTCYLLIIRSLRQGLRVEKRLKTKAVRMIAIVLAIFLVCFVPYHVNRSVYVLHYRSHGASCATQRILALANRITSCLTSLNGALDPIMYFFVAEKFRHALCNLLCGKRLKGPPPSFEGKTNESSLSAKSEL
row,SMILES,EC50 [µM]
1,O=C(O)CCc1c(C(=O)O)[nH]c2cc(Cl)c(F)c(Cl)c12,52
2,O=C(O)CCc1c(C(=O)O)[nH]c2cccc(I)c12,36.8
3,O=C(O)CCc1c(C(=O)O)[nH]c2cccc(Br)c12,45.5
4,COc1cc(OC)c2c(CCC(=O)O)c(C(=O)O)[nH]c2c1,> 100

# These reach a lower EC50. Values come first.
row,EC50 [µM],SMILES
1,17.1,O=C(O)CCc1c(C(=O)O)[nH]c2cc(C(F)(F)F)cc(C(F)(F)F)c12
2,2.24,O=C(O)CCc1c(C(=O)O)[nH]c2cc(Br)ccc12
3,0.331,O=C(O)CCc1c(C(=O)O)[nH]c2cc(Cl)cc(Cl)c12
4,0.202,O=C(O)CCc1c(C(=O)O)[nH]c2cc(Br)cc(Br)c12

# Biological target: T1, Uracil nucleotide/cysteinyl leukotriene receptor
# Assay: Antagonist activity at human GPR17 receptor transfected in 1321N1 astrocytoma cells assessed as intracellular calcium mobilization by flurometric assay
# Format: functional, cell-based
row,Activity,SMILES
1,inactive,COc1cc(OC)c2c(CCC(=O)O)c(C(=O)O)[nH]c2c1
